Test systems include HOP-62 NSCLC; LXFL 529 NSCLC; KM12 colon; M19-MEL melanoma; UACC-257 melanoma; UACC-62 melanoma; HT29 colon; SF-295 CNS; SN12C renal; OVCAR-4 ovarian.
Test in all cases: growth of human tumour cells (NCI), 48 h

“And” between values parts separate entries of the source, which are not always exact repeats. Equal entries are not always repeated.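 Where inhibition never reached the appropriate level, the endpoint shown equals the highest concentration tested. Otherwise, values were interpolated linearly from a five-concentration, 48-hour dose response in 96-well plates. At the GI50, growth is halved. TGI: total growth inhibition.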

On to `N#Cc1cccc(C2C(=O)c3ccc(C(=O)c4ccc5c(c4)C(=O)N(c4ccc(Oc6ccc(N7C(=O)c8ccc(C(=O)c9ccc%10c(c9)C(=O)N(c9cccc(C#N)c9)C%10=O)cc8C7=O)cc6)cc4)C5=O)cc3C2=O)c1` (stereo not drawn), for which the TGI in the test with HOP-62 NSCLC, in the test with LXFL 529 NSCLC, with KM12 colon, with M19-MEL melanoma, with UACC-257 melanoma and in the test with UACC-62 melanoma was more than 100 µM in each case. For the same compound, the TGI with HT29 colon, with SF-295 CNS, with SN12C renal and in the test on OVCAR-4 ovarian was more than 100 µM throughout.
With `Cc1ccc(NC(=O)CC2SC(=Nc3ccc(Cl)cc3)NC2=O)cc1C` (stereo not drawn), the TGI is more than 100 µM in the test with HOP-62 NSCLC; 34 µM in the test on LXFL 529 NSCLC; 40.3 µM with KM12 colon; 36.1 µM with M19-MEL melanoma; 29.4 µM in the test on UACC-257 melanoma; 32.6 µM in the test with UACC-62 melanoma. For the same compound, the TGI was 33.2 µM with HT29 colon, more than 73.3 µM in the test on SF-295 CNS, 31.9 µM in the test on SN12C renal and 35.6 µM in the test on OVCAR-4 ovarian.
For `CC1=CC[C@@H](C(C)(C)O)C[C@@H]1O`, the TGI with HOP-62 NSCLC, in the test with LXFL 529 NSCLC, in the test on KM12 colon, in the test with M19-MEL melanoma, with UACC-257 melanoma and in the test with UACC-62 melanoma was more than 5000 µM in each case. Moreover, the TGI in the test with HT29 colon, in the test with SF-295 CNS, in the test with SN12C renal and in the test on OVCAR-4 ovarian was more than 5000 µM each time.
`CC1C(O)=C(O)c2ccccc2N1O` (stereo not drawn): the TGI in the test with HOP-62 NSCLC, in the test on LXFL 529 NSCLC, in the test on KM12 colon, in the test with M19-MEL melanoma, in the test with UACC-257 melanoma and with UACC-62 melanoma was more than 100 µM in each case. The TGI in the test with HT29 colon, in the test on SF-295 CNS, in the test with SN12C renal and in the test on OVCAR-4 ovarian was more than 100 µM in each case.
With `Cc1ccccc1-n1c(CCl)nc2ccc(Br)cc2c1=O`, the TGI in the test on HOP-62 NSCLC turned out to be 56 µM; in the test on LXFL 529 NSCLC, 18.5 µM; with KM12 colon, 26.9 µM; in the test with M19-MEL melanoma it was 19.9 µM; in the test on UACC-257 melanoma, 32.2 µM; in the test with UACC-62 melanoma it was 17.9 µM. Also, the TGI in the test on HT29 colon came to 16.7 µM; with SF-295 CNS, 58.4 µM; in the test on SN12C renal it was 16.6 µM; with OVCAR-4 ovarian it was 31.8 µM.
For the compound `CC1[C@@H]2CC=C3[C@H]4CCC5Cc6nc7c(nc6C[C@@]5(C)C4CC(=O)[C@]32CO[C@]12OC(C)(C)CC2O)CC1CC[C@@H]2C3=C[C@H]4O[C@@]5(O[C@@](C)(CO)C[C@@H]5O)C(C)[C@@]4(O)[C@]3(C)[C@@H](O)CC2[C@]1(C)C7` (stereo partly drawn), the GI50 with HOP-62 NSCLC is 0.00024 µM and 0.000365 µM; with LXFL 529 NSCLC, 0.000384 µM; in the test with KM12 colon it was 0.00188 µM and 0.000966 µM; with M19-MEL melanoma it was 0.617 µM and 2.48 µM; in the test with UACC-257 melanoma, 0.00426 µM; with UACC-62 melanoma, 0.000316 µM and 0.000574 µM. Also, the GI50 was 0.00282 µM and 0.00152 µM in the test with HT29 colon; 0.000124 µM and < 0.000365 µM in the test with SF-295 CNS; 0.295 µM with SN12C renal; 0.039 µM and 0.0985 µM with OVCAR-4 ovarian. Further, the TGI in the test on HOP-62 NSCLC was 0.00248 µM and 0.00609 µM; with LXFL 529 NSCLC it was 0.00244 µM; with KM12 colon it was 0.0788 µM and 0.0848 µM; in the test with M19-MEL melanoma, more than 3.65 µM; in the test on UACC-257 melanoma, 0.0211 µM; in the test with UACC-62 melanoma, 0.00098 µM and 0.0062 µM. Besides, the TGI in the test on HT29 colon is 0.0487 µM and 0.027 µM; in the test with SF-295 CNS it was 0.000434 µM and < 0.000365 µM; with SN12C renal, 0.906 µM and > 3.65 µM; in the test on OVCAR-4 ovarian, 0.921 µM and > 3.65 µM.
On to `CC(=O)O[C@@H]1CC[C@@]2(C)C(=O)C34C[C@@]5(C)C([C@@H](C)CCCC(C)C)CCC5(C)[C@](O)(O3)C(=O)[C@H]4C2C1(C)C` (stereo partly drawn), for which the TGI with HOP-62 NSCLC came out at 33.1 µM; in the test on LXFL 529 NSCLC it was 30.4 µM; with KM12 colon it was 24 µM; in the test on M19-MEL melanoma it was 27.3 µM; with UACC-257 melanoma, 32.3 µM; in the test with UACC-62 melanoma, 32.6 µM. In addition, the TGI was found to be 25.6 µM in the test on HT29 colon, 29.8 µM in the test with SF-295 CNS, 26.7 µM with SN12C renal and 26.2 µM in the test with OVCAR-4 ovarian.
Regarding `[CH3][Hg]/[N]=C(/N)NC#N`, the GI50 with HOP-62 NSCLC was 19.4 µM; in the test on LXFL 529 NSCLC, 1.43 µM; in the test on KM12 colon it was 16.5 µM; in the test on M19-MEL melanoma, 12.1 µM; with UACC-257 melanoma, 5.1 µM; in the test with UACC-62 melanoma, 11.4 µM. Moreover, the GI50 was 19.9 µM with HT29 colon, 18.5 µM with SF-295 CNS, 14 µM with SN12C renal and 3.23 µM with OVCAR-4 ovarian. The TGI was determined as 36.6 µM with HOP-62 NSCLC; 3.08 µM in the test with LXFL 529 NSCLC; 30 µM in the test with KM12 colon; 25.2 µM in the test with M19-MEL melanoma; 17.4 µM in the test with UACC-257 melanoma; 23.9 µM in the test on UACC-62 melanoma. For the same compound, the TGI in the test with HT29 colon stood at 50.8 µM; in the test with SF-295 CNS, 54.5 µM; with SN12C renal, 28.5 µM; with OVCAR-4 ovarian, 9.31 µM.
For `CC1=C(C(=O)Nc2ccc(C)cc2)C(c2cccc([N+](=O)[O-])c2)C(C(=O)Nc2ccc(C)cc2)=C(C)N1`, the TGI in the test with HOP-62 NSCLC is 89.4 µM; in the test on LXFL 529 NSCLC, more than 100 µM; in the test with KM12 colon it was 40.2 µM; in the test on M19-MEL melanoma it was 63.4 µM; in the test on UACC-257 melanoma, 56.7 µM; in the test with UACC-62 melanoma it was 30.4 µM. Besides, the TGI with HT29 colon was 49.4 µM; in the test on SF-295 CNS it was 82.3 µM; with SN12C renal, 67.4 µM; in the test with OVCAR-4 ovarian, more than 100 µM.
In the case of `COc1ccc2nc3ccccc3c(NCCN(CCCl)CCCl)c2c1`, the TGI is 2.97 µM in the test with HOP-62 NSCLC; 2.25 µM with LXFL 529 NSCLC; 4.37 µM with KM12 colon; 3.2 µM in the test with M19-MEL melanoma; 3.99 µM in the test on UACC-257 melanoma; 2.3 µM with UACC-62 melanoma. The TGI in the test on HT29 colon worked out at 61.1 µM; with SF-295 CNS it was 10 µM; in the test on SN12C renal it was 4.21 µM; in the test on OVCAR-4 ovarian, 3.14 µM.
For the compound `N#CCCN(c1ccc(C=O)cc1)S(=O)(=O)c1ccccc1`, the TGI in the test with HOP-62 NSCLC, in the test on LXFL 529 NSCLC, with KM12 colon, with M19-MEL melanoma, in the test with UACC-257 melanoma and in the test with UACC-62 melanoma was more than 100 µM throughout. Further, the TGI in the test with HT29 colon, in the test with SF-295 CNS, with SN12C renal and with OVCAR-4 ovarian was more than 100 µM throughout.
For `CC(=O)Nc1ccc(C2=N/C(=C\c3ccc(Cl)cc3)C(=O)O2)cc1`, the TGI was more than 100 µM with HOP-62 NSCLC; 56.9 µM with LXFL 529 NSCLC; more than 100 µM in the test on KM12 colon; 57.5 µM with M19-MEL melanoma; more than 100 µM in the test with UACC-257 melanoma; more than 100 µM in the test on UACC-62 melanoma. For the same compound, the TGI is more than 100 µM in the test on HT29 colon, more than 100 µM in the test with SF-295 CNS, 61.5 µM with SN12C renal and more than 100 µM with OVCAR-4 ovarian.
Take `Cc1cc(C)nc(NS(=O)(=O)c2ccc(NC(=O)COC(=O)c3cccc4c(=O)c5ccccc5[nH]c34)cc2)n1`: the TGI in the test on HOP-62 NSCLC was 47.4 µM; in the test with LXFL 529 NSCLC, more than 100 µM; with KM12 colon, 38.8 µM; in the test on M19-MEL melanoma, 42.1 µM; in the test with UACC-257 melanoma, 65.1 µM; in the test with UACC-62 melanoma, 34.3 µM. In addition, the TGI in the test with HT29 colon is more than 100 µM; in the test with SF-295 CNS, 95.5 µM; with SN12C renal, more than 100 µM; in the test with OVCAR-4 ovarian it was more than 100 µM.
Turning to `COc1ccc([C@@H]2OC(=O)C3C2C(=O)O[C@H]3c2ccc(OC)cc2)cc1` (stereo partly drawn), the TGI with HOP-62 NSCLC, with LXFL 529 NSCLC, in the test on KM12 colon, with M19-MEL melanoma, with UACC-257 melanoma and in the test with UACC-62 melanoma was more than 100 µM in each case. The TGI with HT29 colon, with SF-295 CNS, with SN12C renal and in the test on OVCAR-4 ovarian was more than 100 µM in each case.
For `COC(=O)C(C(=O)C(=O)Nc1ccccc1C)c1nc2ccc([N+](=O)[O-])cc2[nH]c1=O` (stereo not drawn), the TGI in the test with HOP-62 NSCLC, in the test on LXFL 529 NSCLC, in the test on KM12 colon, with M19-MEL melanoma, in the test with UACC-257 melanoma and in the test on UACC-62 melanoma was more than 100 µM each time. The TGI with HT29 colon, in the test with SF-295 CNS, with SN12C renal and in the test with OVCAR-4 ovarian was more than 100 µM each time.
As for `Cc1cc(Cl)cc2c1NC(=O)C2(O)C(C(=O)c1ccccc1)c1ccccc1` (stereo not drawn), the TGI in the test on HOP-62 NSCLC was more than 100 µM; with LXFL 529 NSCLC, > 100 µM and 72.8 µM; in the test on KM12 colon it was more than 100 µM; in the test on M19-MEL melanoma, 10 µM; in the test on UACC-257 melanoma it was > 100 µM and 52.1 µM; in the test on UACC-62 melanoma, 33.3 µM. Moreover, the TGI was more than 100 µM in the test with HT29 colon; more than 100 µM in the test on SF-295 CNS; > 100 µM and 38.6 µM in the test with SN12C renal; > 100 µM and 40 µM with OVCAR-4 ovarian. In addition, the GI50 with LXFL 529 NSCLC was 56.2 µM and 24 µM; with UACC-257 melanoma it was 57 µM and 19.9 µM; with SN12C renal it was > 100 µM and 14.9 µM.

Values taken from PubChem BioAssay (NCI).
